Assays:
human PPARα = molecular target: T1, human PPARα (Homo sapiens, UniProt Q07869); experiment: Luciferase assay using human PPARα (Gal4-PPARα LBD chimeric receptor, CV-1 cells); assay type: cell-based; details: PPARα agonistic activity, compound 10 μM, luciferase activity of carbacyclin (10 μM) defined as 1.0, 42 hours
T1 construct: expressed in transfected cells; host or cells: CV-1 cells
T1 sequence (Q07869 167-468): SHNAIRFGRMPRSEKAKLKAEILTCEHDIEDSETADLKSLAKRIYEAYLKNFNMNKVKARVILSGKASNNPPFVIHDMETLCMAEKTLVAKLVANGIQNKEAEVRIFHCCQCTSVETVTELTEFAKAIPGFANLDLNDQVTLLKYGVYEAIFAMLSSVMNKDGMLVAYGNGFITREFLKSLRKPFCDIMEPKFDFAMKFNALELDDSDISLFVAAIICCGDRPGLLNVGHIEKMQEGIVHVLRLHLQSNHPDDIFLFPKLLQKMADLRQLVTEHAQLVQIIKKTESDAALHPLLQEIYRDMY

human PPARγ = molecular target: T2, human PPARγ (Homo sapiens, UniProt P37231); experiment: Luciferase assay using human PPARγ (Gal4-PPARγ LBD chimeric receptor, CV-1 cells); assay type: cell-based; details: PPARγ agonistic activity, compound 10 μM, luciferase activity of troglitazone (10 μM) defined as 1.0, 42 hours
T2 construct: expressed in transfected cells; host or cells: CV-1 cells
T2 sequence (P37231 204-505): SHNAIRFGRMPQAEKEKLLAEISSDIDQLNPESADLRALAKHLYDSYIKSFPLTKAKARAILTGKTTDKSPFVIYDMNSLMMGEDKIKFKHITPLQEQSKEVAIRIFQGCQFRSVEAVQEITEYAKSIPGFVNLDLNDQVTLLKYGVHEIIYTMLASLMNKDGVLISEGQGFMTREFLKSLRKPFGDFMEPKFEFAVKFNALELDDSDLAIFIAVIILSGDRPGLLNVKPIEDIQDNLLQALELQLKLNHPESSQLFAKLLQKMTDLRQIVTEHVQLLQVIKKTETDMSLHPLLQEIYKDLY

KKAy/Ta mice = experiment: Hypoglycemic and hypolipidemic effects in KKAy/Ta mice; assay type: in vivo; details: male KKAy/Ta mice, food mixture containing 0.03% (w/w) compound for two days, 5 mice per group; for TG level on Day 3: control 523 ± 144; for glycemic level on Day 3: control 638 ± 63
Text: Hypoglycemic and Hypolipidemic Effects
Male, 7-weeks old KKAy/Ta mice weighed from 35 to 40 g (five mice per group) were pre-breaded for approximately one week and acclimatized for three days on milled diet. On the first day of the experiment (Day 0), mice were divided into some groups according to weight, plasma glucose and triglyceride (TG) levels to minimize the differences among groups. From the next day for two days they were given compounds by food mixture containing 0.03% (w/w) of the compound of the present invention or by milled diet only. At 13:00 of the third day, blood samples were collected to measure glucose and TG levels. Additionally, there was no significant difference in the food intake between control group (milled diet only) and compounds-treated group (milled diet containing 0.03% compounds).

SD rats = experiment: Hypocholesterolemic and hypolipidemic effects in SD rats given hypercholesterolemic food; assay type: in vivo; details: male SD rats, oral administration in 0.5% CMC, then hypercholesterolemic food, blood at 9:00 of the next day, 5 rats per group; for TC level: control 154 ± 8; for TG level: control 158 ± 19; for NEFA levle: control 537 ± 69
Text: Hypocholesterolemic and Hypolipidemic Effects
Male, six-weeks old SD rats (five rats per group) were left to take milled diet and water ad libitum and were acclimatized for 1 week.
At 9:00 on the first day of the experiment (Day 0), blood sampling was done from tail vein. The rats were divided into some groups according to body weight, triglyceride (TG), non-esterified fatty acid (NEFA) and total cholesterol (TC) levels to minimize differences of the parameters among the groups. At 17:00 of the day, the compound of the present invention dissolved in 0.5% aqueous solution of carboxymethylcellulose (CMC) was orally administered, and thereafter, with hypercholesterolemic food (5.5% peanut oil, 1.5% cholesterol and 0.5% cholic acid were mixed with milled CRF-1 diet, Charles River Inc.) was given to the rats.
At 9:00 of the next day, blood sampling was done from tail vein. The lipid levels in blood (TG, NEFA and TC levels) after administration of the compounds of the present invention were measured. There was no significant difference of the food intake between the control group (provided only 0.5% CMC) and the group treated with the compounds of the present invention.

SMILES: Cc1oc(-c2ccccc2)nc1CCOCC#CCSCC(=O)O [Example 5 (2), 2-(4-(2-(5-methyl-2-phenyloxazol-4-yl)ethoxy)-2-butynylthio)acetic acid]
- Relative Activity to a positive control compound (carbacyclin = 1) (human PPARα): 2.9
- Relative Activity to a positive control compound (troglitazone = 1) (human PPARγ): 2.6

SMILES: Cc1oc(-c2ccccc2)nc1CCOCCCCSCC(=O)O [Example 5 (8), 2-(4-(2-(5-methyl-2-phenyloxazol-4-yl)ethoxy)butylthio)acetic acid]
- Relative Activity to a positive control compound (carbacyclin = 1) (human PPARα): 2.2
- Relative Activity to a positive control compound (troglitazone = 1) (human PPARγ): 2.3

SMILES: Cc1ccc(-c2nc(CCOCC#CCSCC(=O)O)c(C)o2)cc1 [Example 5 (10), 2-(4-(2-(5-methyl-2-(4-methylphenyl)oxazol-4-yl)ethoxy)-2-butynylthio)acetic acid]
- Relative Activity to a positive control compound (carbacyclin = 1) (human PPARα): 1.5
- Relative Activity to a positive control compound (troglitazone = 1) (human PPARγ): 2.7
- TG level on Day 3 (KKAy/Ta mice): 111 ± 38 mg/dL
- glycemic level on Day 3 (KKAy/Ta mice): 339 ± 74 mg/dL
- TC level (SD rats): 88 ± 6 mg/dL
- TG level (SD rats): 95 ± 17 mg/dL
- NEFA levle (SD rats): 334 ± 55 μEq/l

SMILES: Cc1oc(-c2ccc3c(c2)OCO3)nc1CCOCC#CCSCC(=O)O [Example 5 (11), 2-(4-(2-(5-methyl-2-(1,3-dioxaindan-5-yl)oxazol-4-yl)ethoxy)-2-butynylthio)acetic acid]
- Relative Activity to a positive control compound (carbacyclin = 1) (human PPARα): 1.7
- Relative Activity to a positive control compound (troglitazone = 1) (human PPARγ): 2.3
- TG level on Day 3 (KKAy/Ta mice): 140 ± 75 mg/dL
- glycemic level on Day 3 (KKAy/Ta mice): 306 ± 72 mg/dL
- TC level (SD rats): 91 ± 6 mg/dL
- TG level (SD rats): 90 ± 14 mg/dL
- NEFA levle (SD rats): 227 ± 17 μEq/l

Reference: patent publication US7241784B2, “Carboxylic acid derivative and a pharmaceutical composition containing the derivative as active ingredient” (Ono Pharmaceutical Co., Ltd., priority 1998, dated 2007)
